For orientation: logD means lipophilicity at a set pH, counting ionised and neutral species. The low end stands for a more hydrophilic compound, the high end for a more lipophilic compound.

The nature of this data set: method code SF-HPLC, from DOI: 10.1002/(sici)1521-3838(199911)18:5<482::aid-qsar482>3.0.co;2-r. To be noted: pH 6.4.
With `Cc1[nH]c2ccccc2c1Cc1n[nH]c(=S)n1-c1ccccc1`, the logD was found to be 2.55.

For the compound `Cc1[nH]c2ccccc2c1Cc1nnc(Nc2ccccc2)s1`, the logD came out at 3.11.

Compound `S=c1[nH]nc(Cn2ccc3cc(Br)ccc32)n1-c1cccc2ccccc12` gave a logD of 3.88.

Compound `O=[N+]([O-])c1ccc2c(ccn2Cc2n[nH]c(=S)n2-c2ccccc2)c1` came in with a log distribution coefficient (logD) of 2.65.

On to `Cc1ccc(Nc2nnc(Cn3ccc4ccccc43)s2)cc1`, for which the logD worked out at 3.99.

With `Cc1ccc(-n2c(Cn3ccc4ccccc43)n[nH]c2=S)cc1`, the logD came to 3.2.

For the compound `S=c1[nH]nc(Cn2ccc3ccccc32)n1-c1ccccc1`, the logD turned out to be 2.68.

Turning to `Cc1ccc(-n2c(Cc3c(C)[nH]c4ccccc34)n[nH]c2=S)cc1`, the logD came out at 3.

`c1ccc2c(Nc3nnc(Cn4ccc5ccccc54)s3)cccc2c1` yielded a logD of 4.54.

`Cc1ccc(-n2c(Cn3ccc4cc([N+](=O)[O-])ccc43)n[nH]c2=S)cc1` displayed a logD of 3.17.

Values taken from the SangsterLogP compilation.
